The results in this text go back to patent US12433882B2, “Treatments for amyotrophic lateral sclerosis using dazucorilant” (Corcept Therapeutics Incorporated, priority 2022, dated 2025).

Each structure is given as a SMILES string. pKi: −log10 of the molar value.

The target of assay [1] is T1, mineralocorticoid receptor (MR) (Homo sapiens, UniProt P08235).
T1 sequence (P08235 1-984): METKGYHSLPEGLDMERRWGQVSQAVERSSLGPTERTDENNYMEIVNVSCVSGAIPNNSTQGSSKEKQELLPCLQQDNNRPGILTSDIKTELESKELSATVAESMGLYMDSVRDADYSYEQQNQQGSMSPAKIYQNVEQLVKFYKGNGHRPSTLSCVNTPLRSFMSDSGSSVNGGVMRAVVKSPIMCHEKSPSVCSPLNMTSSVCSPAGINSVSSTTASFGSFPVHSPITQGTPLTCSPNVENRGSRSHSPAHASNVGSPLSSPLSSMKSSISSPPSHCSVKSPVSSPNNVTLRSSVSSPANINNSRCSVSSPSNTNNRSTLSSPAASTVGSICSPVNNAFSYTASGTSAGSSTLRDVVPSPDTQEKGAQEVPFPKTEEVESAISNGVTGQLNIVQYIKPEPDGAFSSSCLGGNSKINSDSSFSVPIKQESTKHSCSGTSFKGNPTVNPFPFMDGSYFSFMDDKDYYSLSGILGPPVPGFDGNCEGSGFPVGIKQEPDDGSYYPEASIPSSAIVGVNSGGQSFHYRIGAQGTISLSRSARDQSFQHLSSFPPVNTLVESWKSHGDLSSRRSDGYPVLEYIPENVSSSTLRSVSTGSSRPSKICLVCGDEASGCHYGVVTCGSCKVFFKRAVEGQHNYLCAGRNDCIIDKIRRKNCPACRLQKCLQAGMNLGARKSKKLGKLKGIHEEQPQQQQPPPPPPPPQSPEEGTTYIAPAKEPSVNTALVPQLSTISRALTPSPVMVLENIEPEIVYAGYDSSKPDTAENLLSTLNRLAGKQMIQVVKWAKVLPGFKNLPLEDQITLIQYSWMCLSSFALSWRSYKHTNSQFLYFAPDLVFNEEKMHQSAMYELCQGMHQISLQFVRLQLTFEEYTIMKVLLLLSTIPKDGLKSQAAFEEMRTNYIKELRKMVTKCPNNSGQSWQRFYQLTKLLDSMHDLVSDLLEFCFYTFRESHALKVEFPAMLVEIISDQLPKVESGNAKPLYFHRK
The assay is described as follows: MR reporter gene assay. The assay is classed as cell-based. For orientation: Reporter assays use an easily measured gene product as a stand-in for the process of interest.

In assay [2] the target is T2, GR (Homo sapiens, UniProt P04150).
T2 sequence (P04150 1-777): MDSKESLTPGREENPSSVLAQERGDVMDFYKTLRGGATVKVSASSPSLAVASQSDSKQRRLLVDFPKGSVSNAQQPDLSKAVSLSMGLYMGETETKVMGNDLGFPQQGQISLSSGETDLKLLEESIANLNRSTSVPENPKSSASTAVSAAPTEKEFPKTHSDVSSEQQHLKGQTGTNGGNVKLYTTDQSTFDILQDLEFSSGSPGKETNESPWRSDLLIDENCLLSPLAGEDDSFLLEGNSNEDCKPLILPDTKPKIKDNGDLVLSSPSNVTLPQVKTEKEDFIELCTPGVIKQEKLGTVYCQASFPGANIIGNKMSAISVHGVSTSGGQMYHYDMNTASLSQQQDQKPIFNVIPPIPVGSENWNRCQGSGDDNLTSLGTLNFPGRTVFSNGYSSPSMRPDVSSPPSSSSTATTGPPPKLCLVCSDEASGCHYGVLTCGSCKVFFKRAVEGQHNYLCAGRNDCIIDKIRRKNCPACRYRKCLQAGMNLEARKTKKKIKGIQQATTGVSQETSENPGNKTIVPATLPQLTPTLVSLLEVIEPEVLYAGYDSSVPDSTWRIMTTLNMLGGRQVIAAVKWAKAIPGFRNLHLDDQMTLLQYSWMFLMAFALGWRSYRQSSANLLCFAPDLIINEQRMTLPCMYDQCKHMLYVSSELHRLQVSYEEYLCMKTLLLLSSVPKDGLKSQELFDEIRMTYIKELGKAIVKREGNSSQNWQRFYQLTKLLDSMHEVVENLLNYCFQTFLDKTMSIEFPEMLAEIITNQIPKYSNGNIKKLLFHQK
The assay is described as follows: Dexamethasone-induced TAT activity in primary hepatocytes from humans. The format is cell-based. Also noted: endogenous in cells; host or cells: primary hepatocytes from humans. The procedure:
Dazucorilant is selective for GR over other nuclear hormone receptors, and a range of other receptors, enzymes, and ion channels. For example, dazucorilant has high selectivity for GR relative to the progesterone receptor (PR), androgen receptor, and estrogen receptor, showing no significant binding to these receptors at a concentration of 10 μM (0%, 1.5% and […], respectively).

Assay [3] deals with effect of prednisone on eosinophils, lymphocytes, neutrophils, osteocalcin. The assay is described as follows: First In Human study Part 3, proof of pharmacological effect (prednisone challenge). The format is in vivo. The settings on record: prednisone+dazucorilant vs. prednisone alone. The source says:
Linear mixed model of PD parameter estimates from part 3 of the FIE study, including terms for treatment fitted as a fixed effect, subject fitted as a random effect, and baseline concentration values fitted as a covariate. AUEC, area under the effect curve; cfb, change from baseline; CI, confidence interval; Emax, maximum change; ns, not significant.

Assay [4] addresses T3, GR (Rattus norvegicus, UniProt P06536).
T3 construct: endogenous in cells
T3 sequence (P06536 1-795): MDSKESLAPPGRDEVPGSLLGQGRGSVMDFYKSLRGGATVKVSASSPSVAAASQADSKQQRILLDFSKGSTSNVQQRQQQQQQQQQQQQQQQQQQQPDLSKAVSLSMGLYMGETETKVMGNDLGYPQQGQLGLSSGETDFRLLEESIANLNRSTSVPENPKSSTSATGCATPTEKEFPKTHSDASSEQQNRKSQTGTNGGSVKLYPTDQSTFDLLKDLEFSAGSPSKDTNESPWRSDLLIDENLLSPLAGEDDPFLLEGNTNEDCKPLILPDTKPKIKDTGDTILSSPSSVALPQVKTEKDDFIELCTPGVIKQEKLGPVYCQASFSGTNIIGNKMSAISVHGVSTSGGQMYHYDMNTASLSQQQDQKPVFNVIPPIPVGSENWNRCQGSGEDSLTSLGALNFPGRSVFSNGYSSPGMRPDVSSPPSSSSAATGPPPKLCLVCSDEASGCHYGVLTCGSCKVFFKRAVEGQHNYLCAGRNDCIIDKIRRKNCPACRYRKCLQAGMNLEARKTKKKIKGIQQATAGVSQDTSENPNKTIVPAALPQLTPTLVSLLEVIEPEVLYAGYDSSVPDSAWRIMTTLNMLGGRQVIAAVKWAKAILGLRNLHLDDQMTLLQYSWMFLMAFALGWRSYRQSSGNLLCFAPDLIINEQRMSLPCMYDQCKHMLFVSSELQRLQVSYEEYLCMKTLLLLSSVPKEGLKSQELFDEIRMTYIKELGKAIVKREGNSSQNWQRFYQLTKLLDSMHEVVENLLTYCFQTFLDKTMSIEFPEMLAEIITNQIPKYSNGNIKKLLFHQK
The assay is described as follows: Inhibition of dexamethasone effect on TAT activity, rat hepatoma cell line. The format is cell-based. The settings on record: read-out: Kc, inhibition of dexamethasone effects on TAT activity.

For the compound `O=C(c1ccccn1)[C@]12Cc3cnn(-c4ccc(F)cc4)c3C=C1CCN(S(=O)(=O)c1ccc(C(F)(F)F)cc1)C2` [dazucorilant, (R)-(1-(4-fluorophenyl)-6-((4-(trifluoromethyl)phenyl)sulfonyl)-4,4a, 5,6,7,8-hexahydro-1-H-pyrazolo[3,4-g]isoquinolin-4a-yl) (pyridin-2-yl)methanone], testing at 5 µM in assay [1] gave an inhibition of 23%. Besides, on GR [2], the “dexamethasone-induced increase in TAT activity” value is recorded as “prevented the dexamethasone-induced increase in TAT activity”. Besides, the “effect of dazucorilant on prednisone-induced changes in eosinophils, lymphocytes, osteocalcin, neutrophils” value in assay [3] was “ameliorated the effect of prednisone on these parameters”. Moreover, the pKi at GR [4] was 8.38.
